Consider 18 molecules from patent publication US5521197A, “3-<1-alkylenearyl>-4-<1,2,3,6-tetrahydropyridinyl>-and 3-<1-alkylenearyl>-4-piperidinyl-1h-indoles: new 5-HT1F agonists” (Eli Lilly and Company, priority 1994, dated 1996).

In assay [1] the test system is protein extravasation in the dura. The assay is described as follows: Inhibition of neuronal protein extravasation (trigeminal ganglion stimulation, Evans Blue in dura). The class given is in vivo, Harlan Sprague-Dawley rats or guinea pigs.
In assay [2] the test system is cephalic vascular smooth muscle. The conditions noted are these: cited from earlier work.
The test system of a further assay is neurogenic inflammation. The conditions noted are these: in vivo; cited from earlier work.
A further assay deals with migraine. Particulars: in vivo; cited from earlier work.
Another assay has as its target T1, 5-HT1F receptor (Homo sapiens, UniProt P30939).
T1 sequence (P30939 1-366): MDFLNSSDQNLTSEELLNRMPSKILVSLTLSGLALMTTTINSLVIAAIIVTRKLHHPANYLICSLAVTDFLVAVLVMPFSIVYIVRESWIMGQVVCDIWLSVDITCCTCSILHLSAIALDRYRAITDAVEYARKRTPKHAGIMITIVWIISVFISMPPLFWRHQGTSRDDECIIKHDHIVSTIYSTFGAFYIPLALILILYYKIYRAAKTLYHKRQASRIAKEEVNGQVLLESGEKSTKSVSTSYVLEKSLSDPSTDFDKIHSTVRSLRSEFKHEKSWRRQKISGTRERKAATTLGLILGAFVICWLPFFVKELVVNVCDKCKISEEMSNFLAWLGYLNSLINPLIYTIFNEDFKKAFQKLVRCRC
The assay is described as follows: Radioligand ([3H]5-HT) binding to the 5-HT1F receptor subtype. The arrangement: expressed in transfected cells; host or cells: Ltk- cells (membranes). How it is done: The cells were washed twice with phosphate-buffered saline, scraped from the culture dishes into 5 mL of ice-cold phosphate-buffered saline, and centrifuged at 200×g for 5 minutes at 4° C. The pellet was resuspended in 2.5 mL of ice-cold Tris buffer (20 mM Tris HCl, pH=7.4 at 23° C., 5 mM EDTA) and homogenized with a Wheaton tissue grinder. The lysate was subsequently centrifuged at 200×g for 5 minutes at 4° C. to pellet large fragments which were discarded. The supernatant was collected and centrifuged at 40,000×g for 20 minutes at 4° C. The pellet resulting from this centrifugation was washed once in ice-cold Tris wash buffer and resuspended in a final buffer containing 50 mM Tris HCl and 0.5 mM EDTA, pH=7.4 at 23° C. Membrane preparations were kept on ice and utilized within two hours for the radioligand binding assays.
Saturation studies were conducted using [^3 H]5-HT at 12 different concentrations ranging from 0.5 nM to 100 nM. […] The binding profile of drugs in competition experiments was accomplished using 10-12 concentrations of compound. […] Nonspecific binding was defined in the presence of 10 μM 5-HT. Binding was initiated by the addition of 50 μL membrane homogenates (10-20 μg). The reaction was terminated by rapid filtration through presoaked (0.5% polyethyleneimine) filters using 48R Cell Brandel Harvester (Gaithersburg, Md.). Subsequently, filters were washed for 5 seconds with ice cold buffer (50 mM Tris HCl, pH=7.4 at 4° C.), dried and placed into vials containing 2.5 mL Readi-Safe (Beckman, Fullerton, Calif.) and radioactivity was measured using a Beckman LS 5000TA liquid scintillation counter. […] Binding data was analyzed by computer-assisted nonlinear regression analysis (Accufit and Accucomp, Lunden Software, Chagrin Falls, Ohio). […] All experiments were performed in triplicate. […]

Where [3] appears, read: iv, read-out: Inhibition of Protein Extravasation, i.v. ID50.
The mark [4] stands for this setting: Table I, [3H]5-HT displacement, transfected Ltk- cell membranes, 37° C., read-out: 5-HT1F BINDING Ki.

Counter-ions that a name gives are not always drawn. Like-named read-outs stand apart in the source and are kept apart here.

The Ki is the dissociation constant of the complex between target and ligand, obtained from inhibition or displacement.

As to `Cn1cc(CCN2CCC(c3c[nH]c4ccc(F)cc34)CC2)cn1` [Compound II, 5-fluoro-3-<1-<2-<1-methyl-1H-pyrazol-4-yl>ethyl>-4-piperidinyl>-1H-indolehydrochloride], in assay [1] (iv; read-out: Inhibition of Protein Extravasation, i.v. ID50), the ED50 is 8.6e-07 µmol/kg.

Regarding `CN(C)C1CCc2[nH]c3ccc(O)cc3c2C1` (centres unmarked) [Compound V, 6-hydroxy-3-dimethylamino-1,2,3,4-tetrahydrocarbazole], the ED50 in assay [1] (setting [3]) is 8.7e-06 µmol/kg.

Regarding `CCN(CC)C1CCc2cccc(Cl)c2C1` (centres unmarked) [Compound IV, 8-chloro-2-diethylamino-1,2,3,4-tetrahydronaphthalene hydrochloride], the ED50 in assay [1] (setting [3]) worked out at 0.00012 µmol/kg.

Regarding `CNS(=O)(=O)Cc1ccc2[nH]cc(CCN(C)C)c2c1` [sumatriptan], the “contraction of cephalic vascular smooth muscle” value in assay [2] is “contract cephalic vascular smooth muscle”. Also, the “blockade of neurogenic inflammation” value in the assay with neurogenic inflammation is recorded as “blocked”. The “effectiveness in the treatment of migraine” value with migraine is “effective in the treatment of migraine”.

As for `Oc1ccc2[nH]cc(C3CCNCC3)c2c1` [Compound III, 5-hydroxy-3-(4-piperidinyl)-1H-indole oxalate], the ED50 in assay [1] (setting [3]) stood at 8.9e-06 µmol/kg.

On to `C1=C(c2c[nH]c3ccccc23)CCN(CCOc2ccccc2)C1` [Example 37, 3-<1-<2-phenoxyethyl>-4-<1,2,3,6-tetrahydropyridinyl>>-1H-indolehydrochloride], for which, on 5-HT1F receptor (setting [4]), the Ki came out at 413 nM.

With `FC(F)(F)c1cccc(CCN2CCC(c3c[nH]c4ccccc34)CC2)c1` [Example 17, 3-<1-<2-<3-trifluoromethylphenyl>ethyl>-4-piperidinyl>-1H -indole], the Ki at 5-HT1F receptor (setting [4]) worked out at 16.1 nM.

For the molecule `COc1ccc(CCN2CCC(c3c[nH]c4ccc(OC)cc34)CC2)cc1` [Example 13, 5-methoxy-3-<1-<2-<4-methoxyphenyl>ethyl>-4-piperidinyl>-1H-indole oxalate], the Ki on 5-HT1F receptor (setting [4]) was 128 nM.

Turning to `c1ccc(CN2CCC(c3c[nH]c4ccccc34)CC2)cc1` [Example 45, 3-<1-benzyl-4-piperidinyl>-1H -indole], on 5-HT1F receptor (setting [4]), the Ki was determined as 240 nM.

For `CNS(=O)(=O)Cc1ccc2[nH]cc(CCN(C)C)c2c1` [Compound I, 3-[2-(dimethylamino)ethyl]-N-methyl-1H-indole-5-methanesulfonamide butane-1,4-dioate (1:1)], the ED50 in assay [1] (setting [3]) worked out at 2.6e-05 µmol/kg.

Consider `CCOc1ccc(CCN2CCC(c3c[nH]c4ccccc34)CC2)cc1` [Example 14, 3-<1-<2-<4-ethoxyphenyl>ethyl>-4-piperidinyl>-1H-indole hydrochloride], for which, on 5-HT1F receptor (setting [4]), the Ki was 185 nM.

Regarding `Fc1ccccc1CCN1CCC(c2c[nH]c3ccccc23)CC1` [Example 1, 3-<1-<2-<2-fluorophenyl>ethyl>-4-piperidinyl>-1H-indole hydrochloride], the Ki at 5-HT1F receptor (setting [4]) came to 29.5 nM.

On to `COc1ccc2[nH]cc(C3CCN(CCc4ccc(F)cc4)CC3)c2c1` [Example 4, 5-methoxy-3-<1-<2-<4-fluorophenyl>ethyl>-4-piperidinyl>-1H-indolehydrochloride], for which, at 5-HT1F receptor (setting [4]), the Ki stood at 35.8 nM.

`c1ccc(CCN2CCC(c3c[nH]c4ccccc34)CC2)cc1` [Example 26, 3-<1-<2-phenylethyl>-4-piperidinyl>-1H-indole]: at 5-HT1F receptor (setting [4]), the Ki was determined as 52.1 nM.

In the case of `Brc1ccc(CCN2CCC(c3c[nH]c4ccccc34)CC2)cc1` [Example 7, 3-<1-<2-<4-bromophenyl>ethyl>-4-piperidinyl>-1H-indole hydrochloride], at 5-HT1F receptor (setting [4]), the Ki turned out to be 73.3 nM.

As for `FC(F)(F)c1ccccc1CCN1CCC(c2c[nH]c3ccccc23)CC1` [Example 16, 3-<1-<2-<2-trifluoromethylphenyl>ethyl>-4-piperidinyl>-1H-indolehydrochloride], the Ki at 5-HT1F receptor (setting [4]) was 64.3 nM.

For `Fc1ccc(CCN2CCC(c3c[nH]c4ccccc34)CC2)cc1` [Example 3, 3-<1-<2-<4-fluorophenyl>ethyl>-4-piperidinyl>-1H-indole hydrochloride], the inhibition constant (Ki) at 5-HT1F receptor (setting [4]) amounted to 31 nM.

At 5-HT1F receptor, `NC(=O)c1ccc2[nH]cc(C3=CCN(CCc4ccccc4)CC3)c2c1` [Example 24, 5-carboxamido-3-<1-<2-phenylethyl>-4-<1,2,3,6-tetrahydropyridinyl>>-1H-indole maleate] registered a Ki of 23.6 nM.
